Test results from ChEMBL document CHEMBL4229387, “Recent progress of the development of dipeptidyl peptidase-4 inhibitors for the treatment of type 2 diabetes mellitus” (Eur J Med Chem, 2018).
pIC50: −log10 of the molar value. Peptide text beside a SMILES is read from it.

biological target: T1, Dipeptidyl peptidase 4 (Homo sapiens, UniProt P27487); test: Inhibition of recombinant human DPP4 expressed in baculovirus expression system using Ala-Pro-AMC as substrate by fluorometric analysis; conditions: not given
Target sequence in this assay (P27487 whole entry): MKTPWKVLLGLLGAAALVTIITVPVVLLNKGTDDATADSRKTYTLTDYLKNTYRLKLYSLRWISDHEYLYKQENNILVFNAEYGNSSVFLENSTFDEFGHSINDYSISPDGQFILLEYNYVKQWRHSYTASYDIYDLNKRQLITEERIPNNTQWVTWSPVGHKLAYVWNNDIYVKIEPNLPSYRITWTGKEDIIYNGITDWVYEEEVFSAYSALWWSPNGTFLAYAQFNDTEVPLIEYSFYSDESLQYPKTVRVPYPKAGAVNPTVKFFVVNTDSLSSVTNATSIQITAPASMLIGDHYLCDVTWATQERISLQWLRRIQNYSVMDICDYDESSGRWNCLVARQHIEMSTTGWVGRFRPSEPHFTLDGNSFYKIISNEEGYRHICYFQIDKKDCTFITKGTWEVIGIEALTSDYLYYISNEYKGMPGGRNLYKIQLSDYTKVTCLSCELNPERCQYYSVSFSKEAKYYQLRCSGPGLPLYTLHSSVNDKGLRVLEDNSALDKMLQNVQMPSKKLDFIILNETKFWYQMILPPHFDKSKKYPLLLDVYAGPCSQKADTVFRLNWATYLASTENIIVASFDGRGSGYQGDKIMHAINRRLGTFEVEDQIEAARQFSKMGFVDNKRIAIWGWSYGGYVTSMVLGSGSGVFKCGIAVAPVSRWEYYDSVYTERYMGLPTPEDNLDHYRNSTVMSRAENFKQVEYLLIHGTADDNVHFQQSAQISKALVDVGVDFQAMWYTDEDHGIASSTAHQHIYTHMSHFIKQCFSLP

pIC50 | Molecule
5.88 | Cc1cc(-c2cn([C@@H]3CN[C@H](C(=O)N4CCC(F)(F)C4)C3)nn2)ccc1F
6.18 | O=C([C@@H]1C[C@H](n2cc(-c3ccccc3)nn2)CN1)N1CCC(F)(F)C1
6.14 | COC(=O)c1cn([C@@H]2CN[C@H](C(=O)N3CCC(F)(F)C3)C2)nn1

biological target: T1, Dipeptidyl peptidase 4; test: Inhibition of recombinant human DPP4 using H-Gly-Pro-AMC as substrate after 30 mins by fluorometric analysis; conditions: not given
Target sequence in this assay (P27487 whole entry): as above

pIC50 | Molecule
7.02 | O=C(CNC(=O)C1CCCN(S(=O)(=O)c2ccccc2)C1)Nc1ccc(Cl)cc1 (centres undefined)

biological target: T1, Dipeptidyl peptidase 4; test: Inhibition of recombinant human DPP4 using H-Gly-Pro-AMC as substrate preincubated for 15 mins followed by substrate addition measured for 20 mins with 1 min interval; conditions: not given
Target sequence in this assay (P27487 whole entry): as above

pIC50 | Molecule
5.46 | O=C(N/N=C/c1cccc2ccccc12)c1[nH]nc2c1CCCC2
5.67 | O=C(N/N=C/c1c(O)ccc2ccccc12)c1n[nH]c2c1CCCC2

biological target: T1, Dipeptidyl peptidase 4; test: Inhibition of DPP4 (unknown origin); conditions: not given
Target sequence in this assay (P27487 whole entry, looked up): as the sequence (P27487 whole entry) above

pIC50 | Molecule
7.19 | CC#CCn1c(N2CCC[C@@H](N)C2)cc(=O)n(Cc2cn(CCC(=O)OC)nn2)c1=O

biological target: T1, Dipeptidyl peptidase 4; test: Inhibition of recombinant human DPP4 pre-incubated for 30 mins before Gly-Pro-Aminomethylcoumarin substrate addition; conditions: not given
Target sequence in this assay (P27487 whole entry): as above

pIC50 | Molecule
7.71 | CC(C)=CCn1c(N2CCCC(N)C2)nc2c1c(=O)n(Cc1ccccc1C#N)c(=O)n2C (centres undefined)

biological target: T1, Dipeptidyl peptidase 4; test: Inhibition of recombinant human DPP4 using Gly-Pro-AMC as substrate after 1 hr by fluorescence assay; conditions: not given
Target sequence in this assay (P27487 whole entry): as above

pIC50 | Molecule
7.85 | N[C@@H](CCn1cc(-c2ccncc2)nn1)Cc1cc(F)c(F)cc1F

biological target: T1, Dipeptidyl peptidase 4; test: Inhibition of recombinant human DPP4 using Gly-Pro-AMC as substrate after 30 mins by fluorescence assay; conditions: not given
Target sequence in this assay (P27487 whole entry): as above

Molecule | pIC50
Brc1nc2n(n1)CC(c1cc3ccccc3o1)=NN2 | 4.55

biological target: T1, Dipeptidyl peptidase 4; test: Inhibition of DPP4 (unknown origin) using Gly-Pro-AMC as substrate preincubated for 4 secs followed by substrate addition and measured after 30 mins by […] assay; conditions: not given

Molecule | pIC50
O=C(O[C@@H]1Cc2c(O)cc(O)cc2O[C@@H]1c1cc(O)c(O)c(O)c1)c1cc(O)c(O)c(O)c1 [EPIGALOCATECHIN GALLATE] | 4.99
Oc1cc(O)c2cc(O)c(-c3ccc(O)c(O)c3)[o+]c2c1 [CYANIDIN CHLORIDE] | 5.85
O=C1C[C@@H](c2ccc(O)cc2)Oc2cc(O)cc(O)c21 [NARINGENIN] | 6.62
O=c1cc(-c2ccc(O)cc2)oc2cc(O)cc(O)c12 [APIGENIN] | 6.85
O=C(O)c1cc(O)c(O)c(O)c1 [GALLIC ACID] | 5.33
O=C(O)/C=C/c1ccc(O)c(O)c1 [CAFFEIC ACID] | 5.47
O=c1cc(-c2ccc(O)c(O)c2)oc2cc(O)cc(O)c12 [LUTEOLIN] | 6.92
COc1cc(-c2[o+]c3cc(O)cc(O)c3cc2O)cc(OC)c1O [MALVIDIN CHLORIDE] | 5.85
O=c1c(O)c(-c2ccc(O)c(O)c2)oc2cc(O)cc(O)c12 [QUERCETIN] | 5.53

Now from value to molecule:

pIC50 | Molecule
6.31 | O=c1c(O)c(-c2ccc(O)cc2)oc2cc(O)cc(O)c12 [KAEMPFEROL]
6.32 | O=c1c(-c2ccc(O)cc2)coc2cc(O)cc(O)c12 [GENISTEIN]
6.38 | OC[C@H]1O[C@@H](Oc2cc3c(O)cc(O)cc3[o+]c2-c2ccc(O)c(O)c2)[C@H](O)[C@@H](O)[C@@H]1O [KUROMANIN]
6.77 | O=c1cc(-c2ccccc2)oc2ccccc12 [FLAVONE]
9.22 | Oc1ccc(/C=C/c2cc(O)cc(O)c2)cc1 [RESVERATROL]
4.98 | C[C@@H]1O[C@@H](OC[C@H]2O[C@@H](Oc3cc(O)c4c(c3)O[C@H](c3ccc(O)c(O)c3)CC4=O)[C@H](O)[C@@H](O)[C@@H]2O)[C@H](O)[C@H](O)[C@H]1O [ERIOCITRIN]
6.55 | COc1ccc([C@@H]2CC(=O)c3c(O)cc(O)cc3O2)cc1O [HESPERETIN]

biological target: T2, Dipeptidyl peptidase 4 (Sus scrofa, UniProt P22411); test: Inhibition of porcine DPP4 after 30 mins by luminescence assay; conditions: not given
T2 sequence (P22411 whole entry): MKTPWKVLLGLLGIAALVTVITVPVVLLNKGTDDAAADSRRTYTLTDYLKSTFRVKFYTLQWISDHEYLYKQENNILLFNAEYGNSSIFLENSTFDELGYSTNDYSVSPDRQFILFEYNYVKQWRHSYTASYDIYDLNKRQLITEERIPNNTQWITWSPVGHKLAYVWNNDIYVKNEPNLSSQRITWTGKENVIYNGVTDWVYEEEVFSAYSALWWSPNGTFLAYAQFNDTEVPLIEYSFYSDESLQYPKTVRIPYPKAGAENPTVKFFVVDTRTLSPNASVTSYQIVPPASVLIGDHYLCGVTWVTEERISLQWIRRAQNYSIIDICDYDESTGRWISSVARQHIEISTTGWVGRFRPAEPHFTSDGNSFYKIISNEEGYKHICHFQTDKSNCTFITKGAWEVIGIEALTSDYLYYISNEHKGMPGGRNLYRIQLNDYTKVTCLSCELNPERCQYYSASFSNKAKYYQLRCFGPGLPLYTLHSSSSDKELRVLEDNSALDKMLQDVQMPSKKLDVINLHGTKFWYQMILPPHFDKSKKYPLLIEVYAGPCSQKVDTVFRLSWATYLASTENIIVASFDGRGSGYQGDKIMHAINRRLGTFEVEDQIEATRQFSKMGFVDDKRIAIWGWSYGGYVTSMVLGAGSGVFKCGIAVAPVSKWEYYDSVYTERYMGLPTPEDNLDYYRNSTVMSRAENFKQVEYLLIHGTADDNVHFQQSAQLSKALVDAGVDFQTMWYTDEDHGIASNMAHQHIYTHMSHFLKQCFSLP

Molecule | pIC50
COc1c(O)cc2oc(-c3ccc(O)cc3)cc(=O)c2c1O [HISPIDULIN] | 6.31
O=C1CC(c2ccc(O)cc2)Oc2cc(O)cc(O)c21 (centres undefined) | 5.60
COc1cc2oc(-c3ccc(O)cc3)cc(=O)c2c(O)c1OC [CIRSIMARITIN] | 6.37

biological target: T2, Dipeptidyl peptidase 4; test: Inhibition of porcine kidney DPP4; conditions: not given

pIC50 | Molecule
3.80 to 4.37 | CC[C@H](C)[C@H](N)C(=O)N[C@@H](CC(C)C)C(=O)N[C@@H](C)C(=O)N1CCC[C@H]1C(=O)O (H-ILAP-OH)
3.80 to 4.37 | H-MAGVDHI-OH
3.80 to 4.37 | CC(C)C[C@H](NC(=O)[C@@H](N)CC(C)C)C(=O)N[C@@H](C)C(=O)N1CCC[C@H]1C(=O)O (H-LLAP-OH)

biological target: T1, Dipeptidyl peptidase 4; test: Inhibition of DPP4 (unknown origin) using Gly-Pro-pNA as substrate after 60 mins; conditions: not given

pIC50 | Molecule
4.18 | CC(C)[C@H](N)C(=O)N[C@@H](Cc1c[nH]c2ccccc12)C(=O)O [VALYLTRYPTOPHAN] (H-Val-Trp-OH)

test system: not listed separately; test: Elimination half life in human; conditions: in vivo

Molecule | half-life [h]
Cc1cc2ncc(C(=O)NCC(C)(C)NCC(=O)N3CCC[C@H]3C#N)cn2n1 [ANAGLIPTIN] | 5.8 to 6.2
N#C[C@@H]1C[C@@H]2C[C@@H]2N1C(=O)[C@@H](N)C12CC3CC(CC(C3)C1)C2 | 2 to 4
Cn1c(=O)cc(N2CCC[C@@H](N)C2)n(Cc2ccccc2C#N)c1=O [ALOGLIPTIN] | 21.1
CC1(C)CCC(=O)N(C[C@@H](N)CC(=O)N2CCc3c(nc(C(F)(F)F)nc3C(F)(F)F)C2)C1 | 16.7 to 21.3

The next lines start with the values.

half-life [h] | Molecule
63.5 | O=C([C@@H]1C[C@H](N2CCN(c3ncccn3)CC2)CN1)N1CCC(F)(F)C1 [GOSOGLIPTIN]
26.9 | Cc1cc(N2CCN([C@@H]3CN[C@H](C(=O)N4CCSC4)C3)CC2)n(-c2ccccc2)n1 [TENELIGLIPTIN]
8 to 24 | N[C@@H](CC(=O)N1CCn2c(nnc2C(F)(F)F)C1)Cc1cc(F)c(F)cc1F [SITAGLIPTIN]
32.5 to 39.8 | CC(C)(C)OC[C@@H]1C(=O)NCCN1C(=O)C[C@H](N)Cc1cc(F)c(F)cc1F [EVOGLIPTIN]
10 to 40 | CC#CCn1c(N2CCC[C@@H](N)C2)nc2c1c(=O)n(Cc1nc(C)c3ccccc3n1)c(=O)n2C [LINAGLIPTIN]
38.4 to 54.3 | Cn1c(=O)cc(N2CCC[C@@H](N)C2)n(Cc2cc(F)ccc2C#N)c1=O [TRELAGLIPTIN]
11 to 22 | CS(=O)(=O)n1cc2c(n1)CN([C@H]1CO[C@H](c3cc(F)ccc3F)[C@@H](N)C1)C2 [OMARIGLIPTIN]
